The structures appear in SMILES notation.

The assay concerns HIV-1 single-round infectious reporter virus. The assay can be described thus: microbe, parasite or virus in culture. It is filed as cell-based. To be noted: Human immunodeficiency virus 1, HeLa, 72 h, read-out: EC50 Group from Table 1. How it is done:
Virus production-Human embryonic Kidney cell line, 293T, was propagated in Dulbecco's Modified Eagle Medium (Invitrogen, Carlsbad, Calif.) containing 10% fetal Bovine serum (FBS, Sigma, St. Louis, Mo.).
Virus infection—Human epithelial cell line, HeLa, expressing the HIV-1 receptor CD4 was propagated in Dulbecco's Modified Eagle Medium (Invitrogen, Carlsbad, Calif.) containing 10% fetal Bovine serum (FBS, Sigma, St. Louis, Mo.) and supplemented with 0.2 mg/mL Geneticin (Invitrogen, Carlsbad, Calif.).
Virus-Single-round infectious reporter virus was produced by co-transfecting human embryonic Kidney 293 cells with an HIV-1 envelope DNA expression vector and a proviral cDNA containing an envelope deletion mutation and the luciferase reporter gene inserted in place of HIV-1 nef sequences (Chen et al, Ref. 41). Transfections were performed using lipofectAMINE PLUS reagent as described by the manufacturer (Invitrogen, Carlsbad, Calif.).
1. HeLa CD4 cells were plated in 96 well plates at a cell density of 1×10^4 cells per well in 100 μl Dulbecco's Modified Eagle Medium containing 10% fetal Bovine serum and incubated overnight.
2. Compound was added in a 2 μl dimethylsulfoxide solution, so that the final assay concentration would be ≦10 μM.
3. 100 μl of single-round infectious reporter virus in Dulbecco's Modified Eagle Medium was then added to the plated cells and compound at an approximate multiplicity of infection (MOI) of 0.01, resulting in a final volume of 200 μl per well.
4. Virally-infected cells were incubated at 37 degrees Celsius, in a CO2 incubator, and harvested 72 h after infection.
5. Viral infection was monitored by measuring luciferase expression from viral DNA in the infected cells using a luciferase reporter gene assay kit, as described by the manufacturer (Roche Molecular Biochemicals, Indianapolis, Ind.). Infected cell supernatants were removed and 50 μl of lysis buffer was added per well. After 15 minutes, 50 μl of freshly-reconstituted luciferase assay reagent was added per well. Luciferase activity was then quantified by measuring luminescence using a Wallac microbeta scintillation counter.
7. An EC50 provides a method for comparing the antiviral potency of the compounds of this invention. The effective concentration for fifty percent inhibition (EC50) was calculated with the Microsoft Excel Xlfit curve fitting software. For each compound, curves were generated from percent inhibition calculated at 10 different concentrations by using a four paramenter logistic model (model 205). Table 1 is the key for the data in Table 2.
Broadly, the EC50 is the concentration at which the effect is half-maximal. As to `CNC(=O)c1ccc(F)c2c(C(=O)C(=O)N3CCN(C(=O)N(C(C)C)C(C)C)CC3)c[nH]c12` [Example 6], the half-maximal effective concentration (EC50) was over 5 µM.
For `CNC(=O)c1ccc(F)c2c(C(=O)C(=O)N3CCN(C(=O)N4CCCC4)CC3)c[nH]c12` [Example 15], the EC50 was in the range of 1 to 5 µM.
To `COC(=O)c1ccc(F)c2c(C(=O)C(=O)N3CCN(C(=O)N(C)C)CC3)c[nH]c12` [Example 1] belongs 1 to 5 µM.
To `CN(C)C(=O)N1CCN(C(=O)C(=O)c2c[nH]c3c(-n4cncn4)ncc(F)c23)CC1` [Example 9] belongs under 1 µM.
Take `CNC(=O)c1ccc(F)c2c(C(=O)C(=O)N3CCN(C(=O)N(C)c4ccccc4)CC3)c[nH]c12` [Example 4]: the EC50 fell in the range of 1 to 5 µM.
Take `CNC(=O)c1ccc(F)c2c(C(=O)C(=O)N3CCN(C(=S)N(C)C)CC3)c[nH]c12` [Example 3]: the EC50 is under 1 µM.
The same measure for `CCCCNC(=S)N1CCN(C(=O)C(=O)c2c[nH]c3c(C(=O)NC)ccc(F)c23)CC1` [Example 8]: over 5 µM.
The same measure for `CNC(=O)c1ccc(F)c2c(C(=O)C(=O)N3CCN(C(=O)N(C)C)CC3)c[nH]c12` [Example 2]: under 1 µM; for `CNC(=O)c1ccc(F)c2c(C(=O)C(=O)N3CCN(C(=O)NC(C)(C)C)CC3)c[nH]c12` [Example 7]: over 5 µM.
For `CCN(CC)C(=O)N1CCN(C(=O)C(=O)c2c[nH]c3c(C(=O)NC)ccc(F)c23)CC1` [Example 5], the EC50 was in the range of 1 to 5 µM.

These data come from patent publication US20040063746A1, “Indole, azaindole and related heterocyclic ureido and thioureido piperazine derivatives” (priority 2002, published 2004).
